# Laboratory results reported in the NIST ThermoML archive (doi:10.1021/je800594e).
# Numbers after ± are expanded uncertainties.
# Conditions: for speed of sound / mass density: 101.33 kPa, Liquid; for speed of sound: Pulse-echo method; for mass density: Vibrating tube method; for surface tension liquid-gas: Drop volume
speed of sound (288.15 K) [m/s],mass density (288.15 K) [kg/m3],speed of sound (293.15 K) [m/s],mass density (293.15 K) [kg/m3],surface tension liquid-gas (298.15 K) [mN/m],speed of sound (298.15 K) [m/s],mass density (298.15 K) [kg/m3],speed of sound (303.15 K) [m/s],mass density (303.15 K) [kg/m3],speed of sound (308.15 K) [m/s],mass density (308.15 K) [kg/m3],Compound
1240.7 ± 1.5,1076.64 ± 0.3,1218.1 ± 1.5,1070.01 ± 0.29,28.08 ± 0.21,1195.1 ± 1.5,1063.39 ± 0.28,1173.2 ± 1.5,1056.78 ± 0.28,1151.5 ± 1.5,1050.15 ± 0.27,COC(=O)OC [dimethyl carbonate]
1213.6 ± 1.5,706.58 ± 0.25,1192.9 ± 1.5,702.57 ± 0.25,20.99 ± 0.17,1171.9 ± 1.5,698.55 ± 0.25,1150.9 ± 1.5,694.48 ± 0.25,1130.3 ± 1.5,690.42 ± 0.25,CCCCCCCC [octane]

Compound,speed of sound (288.15 K) [m/s],mass density (288.15 K) [kg/m3],speed of sound (293.15 K) [m/s],mass density (293.15 K) [kg/m3],surface tension liquid-gas (298.15 K) [mN/m],speed of sound (298.15 K) [m/s],mass density (298.15 K) [kg/m3],speed of sound (303.15 K) [m/s],mass density (303.15 K) [kg/m3],speed of sound (308.15 K) [m/s],mass density (308.15 K) [kg/m3]
"Cc1ccc(C)cc1 [1,4-dimethylbenzene]",1350.7 ± 1.6,865.2 ± 0.24,1329.6 ± 1.6,860.9 ± 0.24,27.43 ± 0.2,1308.4 ± 1.5,856.58 ± 0.24,1287.4 ± 1.5,852.21 ± 0.24,1266.4 ± 1.5,847.83 ± 0.24
